Where “and” joins values, the source holds several entries; their conditions need not be identical. Identical values can stand only once. Bridge positions count the residues as written; N and C are the ends. Ends that are not written are not given here. Peptide text beside a SMILES is read from it.
Experiments:
[1] = molecular target: T1, NPR-B (Homo sapiens, UniProt P20594); assay: Membrane guanylyl cyclase (cGMP) assay, NPR-B; assay type: biochemical
T1 sequence (P20594 23-1047): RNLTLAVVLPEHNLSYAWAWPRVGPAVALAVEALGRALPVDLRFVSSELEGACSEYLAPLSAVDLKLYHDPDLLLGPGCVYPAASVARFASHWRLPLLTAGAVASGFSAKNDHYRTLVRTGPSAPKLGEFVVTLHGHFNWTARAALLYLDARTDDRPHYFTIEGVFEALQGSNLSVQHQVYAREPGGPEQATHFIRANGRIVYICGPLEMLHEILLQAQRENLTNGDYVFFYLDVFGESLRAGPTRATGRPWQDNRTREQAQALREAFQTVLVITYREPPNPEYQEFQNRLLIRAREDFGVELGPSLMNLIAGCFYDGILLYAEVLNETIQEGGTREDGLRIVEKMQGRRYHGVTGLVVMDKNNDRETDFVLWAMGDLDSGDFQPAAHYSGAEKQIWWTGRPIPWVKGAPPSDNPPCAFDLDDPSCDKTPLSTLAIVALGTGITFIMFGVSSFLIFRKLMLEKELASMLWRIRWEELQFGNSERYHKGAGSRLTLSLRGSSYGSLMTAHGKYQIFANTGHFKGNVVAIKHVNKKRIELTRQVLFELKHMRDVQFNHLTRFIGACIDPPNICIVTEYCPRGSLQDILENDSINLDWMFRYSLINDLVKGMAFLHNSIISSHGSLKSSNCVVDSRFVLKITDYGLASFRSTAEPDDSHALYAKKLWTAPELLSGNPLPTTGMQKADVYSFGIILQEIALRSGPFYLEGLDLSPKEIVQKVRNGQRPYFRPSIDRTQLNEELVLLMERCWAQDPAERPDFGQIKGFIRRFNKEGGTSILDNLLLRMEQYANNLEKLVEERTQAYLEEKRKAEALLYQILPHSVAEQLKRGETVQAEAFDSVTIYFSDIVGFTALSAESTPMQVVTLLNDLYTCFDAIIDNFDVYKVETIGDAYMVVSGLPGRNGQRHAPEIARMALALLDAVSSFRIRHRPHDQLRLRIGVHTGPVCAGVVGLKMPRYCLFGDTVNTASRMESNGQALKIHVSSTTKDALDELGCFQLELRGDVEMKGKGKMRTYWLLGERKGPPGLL

[2] = molecular target: NPR-A (Homo sapiens, UniProt P16066); assay type: biochemical
NPR-A, sequence (P16066 33-1061): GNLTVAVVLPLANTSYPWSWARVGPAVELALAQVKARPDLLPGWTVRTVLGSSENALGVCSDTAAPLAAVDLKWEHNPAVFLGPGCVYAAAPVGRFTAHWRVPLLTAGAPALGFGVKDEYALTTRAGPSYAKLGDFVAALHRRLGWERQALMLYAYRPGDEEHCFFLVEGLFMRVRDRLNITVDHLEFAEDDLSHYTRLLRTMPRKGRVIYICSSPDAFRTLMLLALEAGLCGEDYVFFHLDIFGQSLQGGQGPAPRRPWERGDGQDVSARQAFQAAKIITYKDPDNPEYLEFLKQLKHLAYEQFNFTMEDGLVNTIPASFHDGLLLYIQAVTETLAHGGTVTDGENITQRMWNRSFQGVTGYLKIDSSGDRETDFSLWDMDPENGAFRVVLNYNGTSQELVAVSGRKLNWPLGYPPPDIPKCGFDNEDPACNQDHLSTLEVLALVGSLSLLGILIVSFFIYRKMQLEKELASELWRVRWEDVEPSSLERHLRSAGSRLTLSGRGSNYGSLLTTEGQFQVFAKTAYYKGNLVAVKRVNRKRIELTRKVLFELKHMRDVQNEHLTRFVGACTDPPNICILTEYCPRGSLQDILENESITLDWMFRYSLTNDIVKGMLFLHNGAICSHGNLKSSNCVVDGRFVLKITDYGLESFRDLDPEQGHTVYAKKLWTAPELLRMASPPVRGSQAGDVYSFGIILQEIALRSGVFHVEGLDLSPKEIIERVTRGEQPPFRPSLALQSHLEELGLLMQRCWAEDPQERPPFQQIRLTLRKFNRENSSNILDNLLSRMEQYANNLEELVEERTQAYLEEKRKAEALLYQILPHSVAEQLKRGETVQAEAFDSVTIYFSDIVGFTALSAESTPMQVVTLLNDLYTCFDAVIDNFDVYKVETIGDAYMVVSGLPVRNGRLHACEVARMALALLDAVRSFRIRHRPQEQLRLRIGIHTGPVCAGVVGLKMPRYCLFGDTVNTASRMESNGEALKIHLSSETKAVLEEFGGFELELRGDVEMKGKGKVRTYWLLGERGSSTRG

[3] = molecular target: T2, neutral endopeptidase (NEP) (Homo sapiens, UniProt P08473)
T2 sequence (P08473 whole entry): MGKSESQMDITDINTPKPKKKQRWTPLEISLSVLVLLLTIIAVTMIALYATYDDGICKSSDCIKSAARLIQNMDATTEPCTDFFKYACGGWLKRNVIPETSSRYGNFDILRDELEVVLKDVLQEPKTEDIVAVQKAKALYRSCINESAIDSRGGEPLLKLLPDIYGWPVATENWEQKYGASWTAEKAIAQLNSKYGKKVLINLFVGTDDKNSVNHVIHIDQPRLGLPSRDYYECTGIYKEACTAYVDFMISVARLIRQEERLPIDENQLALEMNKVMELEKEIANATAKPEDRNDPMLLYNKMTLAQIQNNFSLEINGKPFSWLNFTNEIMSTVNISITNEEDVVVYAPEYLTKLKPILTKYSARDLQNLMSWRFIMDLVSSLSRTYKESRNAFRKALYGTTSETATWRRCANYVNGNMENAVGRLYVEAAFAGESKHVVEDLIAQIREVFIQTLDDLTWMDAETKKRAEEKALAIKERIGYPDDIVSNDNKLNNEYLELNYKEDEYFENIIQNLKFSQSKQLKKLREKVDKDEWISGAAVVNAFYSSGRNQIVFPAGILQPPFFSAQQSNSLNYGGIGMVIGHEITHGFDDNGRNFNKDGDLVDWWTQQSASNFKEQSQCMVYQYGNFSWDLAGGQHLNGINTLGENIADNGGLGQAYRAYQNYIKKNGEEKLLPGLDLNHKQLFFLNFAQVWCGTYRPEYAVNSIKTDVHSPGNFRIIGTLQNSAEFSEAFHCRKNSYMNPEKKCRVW

[4] = molecular target: T2, neutral endopeptidase (NEP); assay: in vitro; details: isolated enzyme neprilysin, pH 7.5
[5] = molecular target: T1, NPR-B; assay: Whole cell guanylyl cyclase (cGMP) assay, NPR-B; assay type: cell-based; set-up: expressed in transfected cells; details: for Emax: read-out: % Efficacy
Protocol: HEK293S cells in a semi-confluent 75 cm2 flask are transfected with 30 μg of plasmid DNA coding for the appropriate receptor, e.g., human NPR-B or NPR-A, using Lipofectamine-2000CD. Alternatively, a stable polyclonal HEK293 S cell line expressing either human NPR-B or NPR-A was used. 24 hours after transfection, cells are trypsinized and plated into 48-well plates at 1×10^5 cells/well. Guanylyl cyclase assay is carried out 24 hours post-plating. Cells are first incubated for 30 minutes at 37° C. with serum-free DMEM medium. Then, they are incubated in triplicate with or without increasing concentrations of reference or test proteins in serum-free DMEM supplemented with 1 mM IBMX and 0.5% BSA, at 37° C. for 30 minutes to one hour. CNP serves as a suitable reference for NPR-B, while ANP is a suitable reference for NPR-A. Finally, cells are washed with ice-cold PBS and solubilized in lysis buffer from Catchpoint cGMP kit (Molecular devices). Concentrations of cGMP in lysate are determined using the Catchpoint cGMP kit. Dose-response curves are analysed with GraphPad Prism 5 software using non-linear regression with four-parameter logistic equation.

Row | Compound | Approximate fold gain in selectivity versus CDNP [1] | Approximate fold selectivity NPR-B versus NPR-A [1] [fold] | NPR-B selective efficacy gain [1] [%] | % efficacy versus CDNP on NPR-A [2] | % loss in efficacy versus CDNP [2] [%] | sensitivity to NEP degradation [3] | % efficacy versus CDNP on NPR-B [1] [%] | Resist NEP degradation (No/Yes) [3] | remaining at 4 h [4] [%] | EC50 Ratio versus CNP22 [5] | Rescue Ratio Average [5] | Rescue Ratio versus CNP22 [5] | Rescue range [5] [nM] | EC50 [5] [nM] | Emax [5] [%] | % of control after 240 min [3] [%]
1 | CC[C@H](C)[C@@H]1NC(=O)[C@H](CCCNC(=N)N)NC(=O)[C@H](CC(=O)O)NC(=O)[C@H](CC(C)C)NC(=O)[C@H](CCCCN)NC(=O)[C@H](CC(C)C)NC(=O)CNC(=O)[C@H](Cc2ccccc2)NC(=O)[C@@H](NC(=O)CNC(=O)[C@H](CCCCN)NC(=O)[C@H](CO)NC(=O)[C@H](CC(C)C)NC(=O)CN)CSSC[C@@H](C(=O)N2CCC[C@H]2C(=O)N[C@@H](CO)C(=O)N[C@@H](CO)C(=O)N[C@@H](C)C(=O)N[C@@H](C)C(=O)N2CCC[C@H]2C(=O)N[C@@H](CCCNC(=N)N)C(=O)N2CCC[C@H]2C(=O)N[C@@H](CC(N)=O)C(=O)N[C@@H](C)C(=O)N2CCC[C@H]2C(=O)N[C@@H](CO)C(=O)N[C@H](C(=O)N[C@@H](CO)C(=O)N[C@@H](C)C(=O)O)[C@@H](C)O)NC(=O)CNC(=O)[C@H](CC(C)C)NC(=O)CNC(=O)[C@H](CO)NC(=O)[C@H](CCSC)NC(=O)[C@H](CO)NC(=O)CNC1=O [CDNP-SAA] (HELM PEPTIDE1{G.L.S.K.G.C.F.G.L.K.L.D.R.I.G.S.M.S.G.L.G.C.P.S.S.A.A.P.R.P.N.A.P.S.T.S.A}$PEPTIDE1,PEPTIDE1,6:R3-22:R3$$$V2.0) | 15 fold and 14.9 fold | 43.5 | 69 | 34-69% | 69 | slightly more sensitive to NEP than CDNP | – | – | – | – | – | – | – | – | – | –
2 | CC[C@H](C)[C@@H]1NC(=O)[C@H](CCCNC(=N)N)NC(=O)[C@H](CC(=O)O)NC(=O)[C@H](CC(C)C)NC(=O)[C@H](CCCCN)NC(=O)[C@H](CC(C)C)NC(=O)CNC(=O)[C@H](Cc2ccccc2)NC(=O)[C@@H](NC(=O)CNC(=O)[C@H](CCCCN)NC(=O)[C@H](CO)NC(=O)[C@H](CC(C)C)NC(=O)CN)CSSC[C@@H](C(=O)N2CCC[C@H]2C(=O)N[C@@H](CO)C(=O)N[C@@H](CO)C(=O)N[C@@H](C)C(=O)N[C@@H](CC(=O)O)C(=O)N2CCC[C@H]2C(=O)N[C@@H](CCCNC(=N)N)C(=O)N2CCC[C@H]2C(=O)N[C@@H](CC(N)=O)C(=O)N[C@@H](C)C(=O)N2CCC[C@H]2C(=O)N[C@@H](CO)C(=O)N[C@H](C(=O)N[C@@H](CO)C(=O)N[C@@H](C)C(=O)O)[C@@H](C)O)NC(=O)CNC(=O)[C@H](CC(C)C)NC(=O)CNC(=O)[C@H](CO)NC(=O)[C@H](CCSC)NC(=O)[C@H](CO)NC(=O)CNC1=O [CDNP-SAD] (HELM PEPTIDE1{G.L.S.K.G.C.F.G.L.K.L.D.R.I.G.S.M.S.G.L.G.C.P.S.S.A.D.P.R.P.N.A.P.S.T.S.A}$PEPTIDE1,PEPTIDE1,6:R3-22:R3$$$V2.0) | 28 fold and 28.5 fold | 83.2 | 27 | – | 27 | comparable NEP sensitivity | – | – | – | – | – | – | – | – | – | –
3 | CC[C@H](C)[C@@H]1NC(=O)[C@H](CCCNC(=N)N)NC(=O)[C@H](CC(=O)O)NC(=O)[C@H](CC(C)C)NC(=O)[C@H](CCCCN)NC(=O)[C@H](CC(C)C)NC(=O)CNC(=O)[C@H](Cc2ccccc2)NC(=O)[C@@H](NC(=O)CNC(=O)[C@H](CCCCN)NC(=O)[C@H](CO)NC(=O)[C@H](CC(C)C)NC(=O)CN)CSSC[C@@H](C(=O)N2CCC[C@H]2C(=O)N[C@@H](CO)C(=O)N[C@@H](CO)C(=O)N[C@@H](CCCNC(=N)N)C(=O)N[C@@H](C)C(=O)N2CCC[C@H]2C(=O)N[C@@H](CCCNC(=N)N)C(=O)N2CCC[C@H]2C(=O)N[C@@H](CC(N)=O)C(=O)N[C@@H](C)C(=O)N2CCC[C@H]2C(=O)N[C@@H](CO)C(=O)N[C@H](C(=O)N[C@@H](CO)C(=O)N[C@@H](C)C(=O)O)[C@@H](C)O)NC(=O)CNC(=O)[C@H](CC(C)C)NC(=O)CNC(=O)[C@H](CO)NC(=O)[C@H](CCSC)NC(=O)[C@H](CO)NC(=O)CNC1=O [CDNP-SRA] (HELM PEPTIDE1{G.L.S.K.G.C.F.G.L.K.L.D.R.I.G.S.M.S.G.L.G.C.P.S.S.R.A.P.R.P.N.A.P.S.T.S.A}$PEPTIDE1,PEPTIDE1,6:R3-22:R3$$$V2.0) | 1.2 fold and 1.23 fold | 3.59 | 82 | 36% | 82 | comparable NEP sensitivity | 118 | – | – | – | – | – | – | – | – | –
4 | EEEEEESGGGGSGGGKGANQQGLSKGCFGLKLDRIGSMSGLGC (disulfide 27-43) [C9(E6) [BC9]] | – | – | – | – | – | – | – | Yes | 98 | 79.3 | 87 | 76-97 | 183 to 1358 | 1170 | 95 | –
5 | EEEEEESGGGGSGGGQGANKKGLSKGCFGLKLDRIGSMSGLGC (disulfide 27-43) [C8(E6) [BC8]] | – | – | – | – | – | – | – | Yes | 103 | 48.9 | 52 | 48-56 | 116 to 779 | 719 | 97 | –
6 | EEEEEESGGGGSGGGQGANKQGLSKGCFGLKLDRIGSMSGLGC (disulfide 27-43) [C11(E6) [BC11]] | – | – | – | – | – | – | – | Yes | 102 | 60.4 | 120 | – | 289 to 1662 | 888 | 95 | –
7 | EEEEEESGGGGSGGGQGANQKGLSKGCFGLKLDRIGSMSGLGC (disulfide 27-43) [C10(E6) [BC10]] | – | – | – | – | – | – | – | Yes | 102 | 168 | 90 | 89-90 | 213 to 1253 | 2470 | 156 | –
8 | EEEEEESGGGGSGGGQGANQQGLSKGCFGLKLDRIGSMSGLGC (disulfide 27-43) [C5(E6) [BC5]] | – | – | – | – | – | – | – | Yes | 100 | 161 | 138 | – | 334 to 1899 | 2360 | 96 | –
9 | GLSKGCFGLKLDRIGSMSGLGCGGGGSGGGGSGGGGDDDDDD (disulfide 6-22) [CNP-14AAlinker-D6 [C4]] | – | – | – | – | – | – | – | Yes | 75 | 146 | 545 | 375-714 | 900 to 10000 | 2140 | 156 | 75

From patent publication US9266939B2, “Compositions comprising natriuretic peptides and methods of use thereof” (Alexion Pharmaceuticals, Inc., priority 2010, dated 2016)
